Data set [1] deals with HDACs (HeLa cell nuclear extracts). As to the kind of experiment: HDAC enzymatic activity, Biomol Color de Lys system. Format: biochemical. The conditions noted are these: 1 hour, 25° C. A digest of the protocol: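 IC50 from sigmoidal fit of developer-terminated fluorescence (ex 350-380/em 440-460 nm). Reaction: 1 h at room temperature (25 °C), HeLa nuclear extract as HDAC source, artificial substrate, buffer of 50 mM Tris/Cl pH 8.0 with 137 mM NaCl, 2.7 mM KCl and 1 mM MgCl2.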

Data set [2] addresses T1, PI3Kα (p110α/p85α) (Homo sapiens, UniProt P42336).
T1 construct: GST (N); made in house; host or cells: Baculovirus-infected Sf9 cells
As to the kind of experiment: PI3Kα ADP-Glo assay. Format: biochemical. Particulars: 20 μM PIP2, 10 μM ATP, 30 minutes. A digest of the protocol:
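Luminescent ADP-Glo detection, after depletion of residual ATP, quantified ADP made by PI3Kα phosphorylating 20 μM PIP2 at 10 μM ATP. The kinase step ran 30 min at room temperature in HEPES pH 7.4 with MgCl2, DTT and orthovanadate, using baculovirus/Sf9-expressed full-length p110α/p85α complex.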
In general terms: In ADP-Glo the light output rises with the ADP produced.

For data set [3], the target named is T2, mTor serine/threonine protein kinase (Homo sapiens, UniProt P42345).
T2 construct: FLAG; made in house; host or cells: Baculovirus expression system in Sf21 cells
Put plainly: mTor kinase radioisotope assay. The conditions noted are these: 70 uM ATP, 40 minutes; read-out: m-TOR IC50. Type of data set: biochemical. The protocol: (F) an In Vitro Assay which-Determines the Ability of a Test Compound to Inhibit mTor Serine/Threonine Protein Kinase.
The ability of compounds to inhibit mTor activity was assayed using standard radioisotope assay for kinase. Briefly, FLAG-tagged, recombinant full-length human mTor (GenBank accession No. NM_004958) was expressed using baculovirus expression system in Sf21 cells and purified using antibody affinity column. Purified enzyme was incubated with c-terminal fragment of p70S6K as it's substrate in the presence of ATP. p33 ATP tracers were included in the assay to monitor the enzyme activity. Final assay condition was with 50 mM HEPES pH 7.5, 1 mM EGTA, 0.01% Tween 20, 2 mg/ml substrate, 3 mM Manganese Chloride and 70 uM of ATP and was carried out at room temperature for 40 minutes. The reaction was then stopped by the addition of 3% phosphoric acid solution. 10 ul of the reaction was spotted onto a P30 filtermat and washed three times for 5 minutes in 75 mM phosphoric acid and once in methanol prior to drying and scintillation counting. Different concentrations of compounds were added to reaction to assess the activity of compounds to inhibit mTor kinase. IC50 was calculated using Prism software with sigmoidal dose-response curve fitting.

T1 sequence (P42336 whole entry): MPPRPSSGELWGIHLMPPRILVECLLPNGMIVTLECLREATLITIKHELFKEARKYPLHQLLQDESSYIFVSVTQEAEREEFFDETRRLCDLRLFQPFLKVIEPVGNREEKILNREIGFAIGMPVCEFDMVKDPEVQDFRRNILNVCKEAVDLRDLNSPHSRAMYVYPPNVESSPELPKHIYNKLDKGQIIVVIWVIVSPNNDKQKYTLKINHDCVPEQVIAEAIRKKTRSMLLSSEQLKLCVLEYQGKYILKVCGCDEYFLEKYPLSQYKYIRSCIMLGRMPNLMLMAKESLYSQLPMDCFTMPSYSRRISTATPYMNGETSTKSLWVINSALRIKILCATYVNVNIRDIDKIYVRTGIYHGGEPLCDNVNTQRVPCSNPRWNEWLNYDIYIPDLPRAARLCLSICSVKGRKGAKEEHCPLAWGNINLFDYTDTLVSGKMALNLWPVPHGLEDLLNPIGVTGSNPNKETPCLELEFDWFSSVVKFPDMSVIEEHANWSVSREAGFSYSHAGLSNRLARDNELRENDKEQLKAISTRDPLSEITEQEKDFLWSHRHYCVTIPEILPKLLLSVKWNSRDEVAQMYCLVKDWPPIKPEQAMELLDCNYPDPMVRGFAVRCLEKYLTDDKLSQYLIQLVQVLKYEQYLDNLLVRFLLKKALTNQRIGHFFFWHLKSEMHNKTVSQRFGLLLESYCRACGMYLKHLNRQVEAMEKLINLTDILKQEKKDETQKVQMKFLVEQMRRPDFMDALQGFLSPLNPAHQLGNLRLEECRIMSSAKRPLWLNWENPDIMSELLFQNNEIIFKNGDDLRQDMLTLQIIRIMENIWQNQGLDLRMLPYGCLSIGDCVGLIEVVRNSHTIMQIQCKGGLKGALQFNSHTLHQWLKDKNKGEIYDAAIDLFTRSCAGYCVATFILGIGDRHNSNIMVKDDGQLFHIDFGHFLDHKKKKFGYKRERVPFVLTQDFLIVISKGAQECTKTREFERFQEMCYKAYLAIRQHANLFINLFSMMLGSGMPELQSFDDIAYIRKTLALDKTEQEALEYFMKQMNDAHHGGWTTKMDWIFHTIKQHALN
T1 sequence (P27986 whole entry partner): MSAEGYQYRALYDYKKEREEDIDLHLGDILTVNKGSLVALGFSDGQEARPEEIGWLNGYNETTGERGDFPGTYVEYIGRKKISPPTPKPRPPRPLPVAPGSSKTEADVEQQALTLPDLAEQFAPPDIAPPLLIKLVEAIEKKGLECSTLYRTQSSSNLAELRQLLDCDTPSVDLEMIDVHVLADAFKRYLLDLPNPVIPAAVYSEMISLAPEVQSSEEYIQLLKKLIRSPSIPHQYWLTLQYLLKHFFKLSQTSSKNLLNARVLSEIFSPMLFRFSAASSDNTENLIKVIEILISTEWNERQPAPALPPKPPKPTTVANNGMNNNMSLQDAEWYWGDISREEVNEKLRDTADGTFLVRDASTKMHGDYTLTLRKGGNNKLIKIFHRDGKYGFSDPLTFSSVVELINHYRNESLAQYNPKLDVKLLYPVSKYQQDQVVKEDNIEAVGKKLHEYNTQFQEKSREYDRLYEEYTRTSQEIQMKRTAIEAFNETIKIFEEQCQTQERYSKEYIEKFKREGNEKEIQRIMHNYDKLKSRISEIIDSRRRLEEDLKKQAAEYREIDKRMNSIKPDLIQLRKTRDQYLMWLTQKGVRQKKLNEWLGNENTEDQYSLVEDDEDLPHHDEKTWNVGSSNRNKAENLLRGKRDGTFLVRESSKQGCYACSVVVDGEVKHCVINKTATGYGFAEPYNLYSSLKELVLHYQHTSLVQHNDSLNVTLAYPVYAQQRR

As to `CC(=O)OCCN(Cc1cc2nc(-c3cccc4[nH]ncc34)nc(N3CCOCC3)c2s1)c1ncc(C(=O)NO)cn1` [Compound 87], the 50% inhibitory concentration (IC50) – broadly, the concentration needed to halve the response being measured – is < 0.1 µM in data set [1], < 0.1 µM in data set [2] and 1 to 10 µM in data set [3].
As to `COC(=O)CN(Cc1cc2nc(-c3cccc4[nH]ncc34)nc(N3CCOCC3)c2s1)c1ncc(C(=O)NO)cn1` [Compound 89], the half-maximal inhibitory concentration (IC50) in data set [1] was < 0.1 µM; in data set [2] it was < 0.1 µM; in data set [3], 1 to 10 µM.
Regarding `N#CCCN(Cc1cc2nc(-c3cccc4[nH]ncc34)nc(N3CCOCC3)c2s1)c1ncc(C(=O)NO)cn1` [Compound 99], the IC50 in data set [1] was < 0.1 µM; in data set [2] it was < 0.1 µM; in data set [3], 0.1 to 1 µM.
For `COc1ncc(-c2nc(N3CCOCC3)c3sc(C(C)(C)Nc4ncc(C(=O)NO)cn4)cc3n2)cn1` [Compound 263, N-Hydroxy-2-(2-(2-(2-methoxypyrimidin-5-yl)-4-morpholinothieno[3,2-d]pyrimidin-6-yl)propan-2-ylamino)pyrimidine-5-carboxamide], the melting point (commonly the temperature, or range, at which the solid turns liquid) was in the range of 202 to 207 °C. Also, in data set [1], the IC50 is < 0.1 µM. In addition, the half-maximal inhibitory concentration (IC50) in data set [2] is < 0.1 µM.
Turning to `Nc1ccc(-c2nc(N3CCOCC3)c3sc(S(=O)(=O)Nc4ncc(C(=O)NO)cn4)cc3n2)cc1` [Compound 271, 2-[2-(4-Amino-phenyl)-4-morpholin-4-yl-thieno[3,2-d]pyrimidine-6-sulfonylamino]-pyrimidine-5-carboxylic acid hydroxyamide], the melting point lay in the range of 197 to 205 °C. The IC50 in data set [1] was < 0.1 µM. Moreover, the IC50 in data set [2] is < 0.1 µM.
For `CN(Cc1cc2nc(-c3ccc(N)c(Cl)c3)nc(N3CCOCC3)c2s1)c1ncc(C(=O)NO)cn1` [Compound 275, 2-(((2-(4-Amino-3-chlorophenyl)-4-morpholinothieno[3,2-d]pyrimidin-6-yl)methyl)(methyl)amino)-N-hydroxypyrimidine-5-carboxamide], the melting point lay within 241 to 246 °C. For the same compound, the IC50 in data set [1] is < 0.1 µM. The compound further yielded an IC50 in data set [2] of 0.1 to 1 µM.
For `CN(Cc1cc2nc(-c3ccc(N)c(F)c3)nc(N3CCOCC3)c2s1)c1ncc(C(=O)NO)cn1` [Compound 276, 2-(((2-(4-Amino-3-fluorophenyl)-4-morpholinothieno[3,2-d]pyrimidin-6-yl)methyl)(methyl)amino)-N-hydroxypyrimidine-5-carboxamide] the same measures were 203 to 206 °C, < 0.1 µM and < 0.1 µM.
For `CN(Cc1cc2nc(-c3ccc(N)c([N+](=O)[O-])c3)nc(N3CCOCC3)c2s1)c1ncc(C(=O)NO)cn1` [Compound 278, 2-(((2-(4-Amino-3-nitrophenyl)-4-morpholinothieno[3,2-d]pyrimidin-6-yl)methyl)(methyl)amino)-N-hydroxypyrimidine-5-carboxamide] the same measures were 202 to 206 °C, < 0.1 µM and < 0.1 µM.
Consider `CN(Cc1cc2nc(-c3ccc(N)c(O)c3)nc(N3CCOCC3)c2s1)c1ncc(C(=O)NO)cn1` [Compound 279, 2-(((2-(4-Amino-3-hydroxyphenyl)-4-morpholinothieno[3,2-d]pyrimidin-6-yl)methyl)(methyl)amino)-N-hydroxypyrimidine-5-carboxamide], for which the melting point was in the range of 214 to 218 °C. Further, the IC50 in data set [1] was < 0.1 µM. Moreover, in data set [2], the half-inhibitory concentration (IC50) was < 0.1 µM.
Consider `CN(Cc1cc2nc(-c3ccc(N)c(C#N)c3)nc(N3CCOCC3)c2s1)c1ncc(C(=O)NO)cn1` [Compound 280, 2-(((2-(4-Amino-3-cyanophenyl)-4-morpholinothieno[3,2-d]pyrimidin-6-yl)methyl)(methyl)amino)-N-hydroxypyrimidine-5-carboxamide], for which the melting point was 237 to 240 °C. Further, the half-inhibitory concentration (IC50) in data set [1] is < 0.1 µM. This compound also returned an IC50 in data set [2] of 0.1 to 1 µM.
For `CC(=O)c1cc(-c2nc(N3CCOCC3)c3sc(CN(C)c4ncc(C(=O)NO)cn4)cc3n2)ccc1N` [Compound 281, 2-{[2-(3-Acetyl-4-amino-phenyl)-4-morpholin-4-yl-thieno[3,2-d]pyrimidin-6-ylmethyl]-methyl-amino}-pyrimidine-5-carboxylic acid hydroxyamide] the same measures were 156 to 158 °C, < 0.1 µM and 0.1 to 1 µM.
In turn, `CN(Cc1cc2nc(-c3cc(F)c(N)c(F)c3)nc(N3CCOCC3)c2s1)c1ncc(C(=O)NO)cn1` [Compound 282, 2-(((2-(4-Amino-3,5-difluorophenyl)-4-morpholinothieno[3,2-d]pyrimidin-6-yl)methyl)(methyl)amino)-N-hydroxypyrimidine-5-carboxamide] gave a melting point of 190 to 193 °C. The IC50 in data set [1] was < 0.1 µM. This compound also had a half-inhibitory concentration (IC50) in data set [2] of 0.1 to 1 µM.
In turn, `CN(Cc1cc2nc(-c3ccc(N)cc3F)nc(N3CCOCC3)c2s1)c1ncc(C(=O)NO)cn1` [Compound 283, 2-{[2-(4-Amino-2-fluoro-phenyl)-4-morpholin-4-yl-thieno[3,2-d]pyrimidin-6-ylmethyl]-methyl-amino}-pyrimidine-5-carboxylic acid hydroxyamide] returned a melting point of 195 to 197 °C. Also, the IC50 in data set [1] is < 0.1 µM. The half-maximal inhibitory concentration (IC50) in data set [2] lay within 0.1 to 1 µM.
Consider `CN(Cc1cc2nc(-c3cccc(SCCO)c3)nc(N3CCOCC3)c2s1)c1ncc(C(=O)NO)cn1` [Compound 290, N-Hydroxy-2-(((2-(3-(2-hydroxyethylthio)phenyl)-4-morpholinothieno[3,2-d]pyrimidin-6-yl)methyl)(methyl)amino)pyrimidine-5-carboxamide], for which the melting point lay in the range of 188 to 192 °C. In addition, in data set [1], the half-inhibitory concentration (IC50) was < 0.1 µM. In addition, the half-maximal inhibitory concentration (IC50) in data set [2] was 0.1 to 1 µM.
For `CC(O)c1ccc(F)c(-c2nc(N3CCOCC3)c3sc(CN(C)c4ncc(C(=O)NO)cn4)cc3n2)c1` (stereo not drawn) [Compound 295, 2-(((2-(2-Fluoro-5-(1-hydroxyethyl)phenyl)-4-morpholinothieno[3,2-d]pyrimidin-6-yl)methyl)(methyl)amino)-N-hydroxypyrimidine-5-carboxamide] the same measures were 230 to 235 °C, < 0.1 µM and 0.1 to 1 µM.
For `Nc1ccc(-c2nc(N3CCOCC3)c3sc(C(=O)NCC4CCN(c5ncc(C(=O)NO)cn5)CC4)cc3n2)cc1` [Compound 307, 2-(4-Aminophenyl)-N-((1-(5-(hydroxycarbamoyl)pyrimidin-2-yl)piperidin-4-yl)methyl)-4-morpholinothieno[3,2-d]pyrimidine-6-carboxamide] the same measures were 232 to 238 °C, < 0.1 µM and 0.1 to 1 µM.
For `CNc1ccc(-c2nc(N3CCOCC3)c3sc(S(=O)(=O)NCC4CCN(c5ncc(C(=O)NO)cn5)CC4)cc3n2)cn1` [Compound 310, N-Hydroxy-2-(4-((2-(6-(methylamino)pyridin-3-yl)-4-morpholinothieno[3,2-d]pyrimidine-6-sulfonamido)methyl)piperidin-1-yl)pyrimidine-5-carboxamide] the same measures were 190 to 197 °C, < 0.1 µM and < 0.1 µM.
`CS(=O)(=O)N1CCN(Cc2cc3nc(-c4ccc(OCCCCC(=O)NO)cc4)nc(N4CCOCC4)c3s2)CC1` [Compound 319, N-Hydroxy-5-(4-(6-((4-(methylsulfonyl)piperazin-1-yl)methyl)-4-morpholinothieno[3,2-d]pyrimidin-2-yl)phenoxy)pentanamide] showed a melting point of 140 to 144 °C. Also, the half-maximal inhibitory concentration (IC50) in data set [1] fell in the range of 0.1 to 1 µM. In data set [2], this compound had an IC50 of 0.1 to 1 µM.
For the compound `CS(=O)(=O)N1CCN(Cc2cc3nc(-c4ccc(OCCCCCC(=O)NO)cc4)nc(N4CCOCC4)c3s2)CC1` [Compound 320, N-Hydroxy-6-(4-(6-((4-(methylsulfonyl)piperazin-1-yl)methyl)-4-morpholinothieno[3,2-d]pyrimidin-2-yl)phenoxy)hexanamide], the melting point was 140 to 142 °C. The concentration for half-maximal inhibition (IC50) in data set [1] is 0.1 to 1 µM. Moreover, the IC50 in data set [2] is 0.1 to 1 µM.
`CS(=O)(=O)N1CCN(Cc2cc3nc(-c4ccc(OCCCCCCC(=O)NO)cc4)nc(N4CCOCC4)c3s2)CC1` [Compound 321, N-Hydroxy-7-(4-(6-((4-(methylsulfonyl)piperazin-1-yl)methyl)-4-morpholinothieno[3,2-d]pyrimidin-2-yl)phenoxy)heptanamide] yielded a melting point of 143 to 145 °C. Further, the IC50 in data set [1] was in the range of 0.1 to 1 µM. In data set [2], this compound registered an IC50 of 0.1 to 1 µM.
